Assay results: PubChem BioAssay AID248 (DTP/NCI, 2004)
Where “and” joins values, the source holds several entries; their conditions need not be identical. Identical values can stand only once. Inconclusive results and toxic doses are left out. Rule as the data show it: active = T/C of 150% or more; inactive = T/C below 125%.

Test system: L1210 leukemia ip in BDF1 mice, survival T/C
Test: NCI In Vivo Anticancer Drug Screen. Data for tumor model L1210 Leukemia (intraperitoneal) in B6D2F1 (BDF1) mice
Details: endpoint: mean survival time, higher = longer survival
Summary of the method: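 Read-out is survival time, reported as the treated-group measurement over the vehicle-control measurement.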

[1] = dose: 50.0 mg/kg/injection, schedule: Q01DX009 (ip), vehicle: saline
[2] = dose: 100.0 mg/kg/injection, schedule: Q01DX009 (ip), vehicle: saline
[3] = dose: 200.0 mg/kg/injection, schedule: Q01DX009 (ip), vehicle: saline
[4] = dose: 100.0 mg/kg/injection, schedule: Q04DX003 (ip), vehicle: Klucel (hydroxypropylcellulose) (HPC)
[5] = dose: 200.0 mg/kg/injection, schedule: Q04DX003 (ip), vehicle: Klucel (hydroxypropylcellulose) (HPC)
[6] = dose: 400.0 mg/kg/injection, schedule: Q04DX003 (ip), vehicle: Klucel (hydroxypropylcellulose) (HPC)
[7] = dose: 100.0 mg/kg/injection, schedule: Q01DX001 (ip), vehicle: saline
[8] = dose: 100.0 mg/kg/injection, schedule: Q04DX003 (ip), vehicle: saline
[9] = dose: 200.0 mg/kg/injection, schedule: Q01DX001 (ip), vehicle: saline
[10] = dose: 200.0 mg/kg/injection, schedule: Q04DX003 (ip), vehicle: saline
[11] = dose: 400.0 mg/kg/injection, schedule: Q01DX001 (ip), vehicle: saline
[12] = dose: 400.0 mg/kg/injection, schedule: Q01DX009 (ip), vehicle: saline
[13] = dose: 400.0 mg/kg/injection, schedule: Q04DX003 (ip), vehicle: saline
[14] = dose: 100.0 mg/kg/injection, schedule: Q04DX003 (ip), vehicle: saline with Tween-80
[15] = dose: 200.0 mg/kg/injection, schedule: Q04DX003 (ip), vehicle: saline with Tween-80
[16] = dose: 400.0 mg/kg/injection, schedule: Q04DX003 (ip), vehicle: saline with Tween-80
[17] = dose: 100.0 mg/kg/injection, schedule: Q04DX002 (ip), vehicle: Klucel (hydroxypropylcellulose) (HPC)
[18] = dose: 200.0 mg/kg/injection, schedule: Q04DX002 (ip), vehicle: Klucel (hydroxypropylcellulose) (HPC)
[19] = dose: 400.0 mg/kg/injection, schedule: Q04DX002 (ip), vehicle: Klucel (hydroxypropylcellulose) (HPC)
[20] = dose: 100.0 mg/kg/injection, schedule: Q01DX009 (ip), vehicle: Klucel (hydroxypropylcellulose) (HPC)
[21] = dose: 200.0 mg/kg/injection, schedule: Q01DX009 (ip), vehicle: Klucel (hydroxypropylcellulose) (HPC)
[22] = dose: 400.0 mg/kg/injection, schedule: Q01DX009 (ip), vehicle: Klucel (hydroxypropylcellulose) (HPC)
[23] = dose: 25.0 mg/kg/injection, schedule: Q04DX002 (ip), vehicle: Klucel (hydroxypropylcellulose) (HPC)
[24] = dose: 200.0 mg/kg/injection, schedule: Q01DX001 (ip), vehicle: carboxymethylcellulose (CMC)
[25] = dose: 400.0 mg/kg/injection, schedule: Q01DX001 (ip), vehicle: carboxymethylcellulose (CMC)

Measured: T/C

Nc1ccc(S(=O)(=O)Nc2cnc3ccccc3n2)cc1
inactive: [1] 99 % of control | [2] 92 % of control | dose: 100.0 mg/kg/injection, schedule: Q04DX002 (ip), vehicle: saline 91 % of control | [3] 89 % of control | dose: 200.0 mg/kg/injection, schedule: Q04DX002 (ip), vehicle: saline 94 % of control

N#CC1(C(O)c2ccccc2)C=Cc2ccccc2N1C(=O)c1ccccc1 (stereo not given)
inactive: dose: 100.0 mg/kg/injection, schedule: Q01DX001 (ip), vehicle: steriod suspending solution 98 % of control | dose: 400.0 mg/kg/injection, schedule: Q01DX001 (ip), vehicle: steriod suspending solution 95 % of control

CCCCCCCCCCCCCCCCOc1ccccc1/C=C/C(=O)O
inactive: [4] 91 % of control | [5] 88 % of control | [6] 95 % of control

Cc1ccc(S(=O)(=O)CCCCCl)cc1
inactive: [7] 101 % of control | [2] 100 % of control | [8] 95 % of control | [9] 96 % of control | [3] 97 % of control | [10] 92 % of control | [11] 104 % of control | [12] 89 % of control | [13] 98 % of control

O=C(Cl)c1cc2ccccc2o1
inactive: [14] 89 % of control | [15] 92 % of control | [16] 95 % of control

CCCCCCCCCCCCCCCCOc1ccc2ccccc2c1
inactive: [4] 97 % of control | [5] 102 % of control | [6] 91 % of control

COc1cc2ccncc2cc1OCc1ccccc1
inactive: dose: 25.0 mg/kg/injection, schedule: Q01DX009 (ip), vehicle: saline 104 % of control | [1] 96 % of control | [2] 102 % of control

CCN(CC)CCN(CC(=O)O)CC(=O)O
inactive: [7] 108 % of control and 98 % of control | [9] 90 % of control and 102 % of control | [11] 96 % of control and 102 % of control

O=C(Nc1ccc(CN2CCOCC2)cc1)c1ccc(C(=O)Nc2ccc(CN3CCOCC3)cc2)cc1
inactive: dose: 37.5 mg/kg/injection, schedule: Q01DX Z (ip), vehicle: water 86 % of control | dose: 75.0 mg/kg/injection, schedule: Q01DX Z (ip), vehicle: water 91 % of control

O=C(O)CCCCCNCc1cc(=O)[nH]c(=O)[nH]1
inactive: [8] 97 % of control | [10] 101 % of control

N#CSCC1OCC(C(O)C(O)C2COC(CSC#N)O2)O1 (stereo not given)
inactive: [17] 95 % of control | [18] 98 % of control | [19] 95 % of control

CC(C)(C)CC(C)(C)c1ccc(OCCOc2ccc(C(=O)O)cc2)cc1
inactive: [20] 88 % of control | [21] 92 % of control | [22] 92 % of control

COc1ccc(CN=C(N)CSS(=O)(=O)O)cc1
inactive: dose: 12.5 mg/kg/injection, schedule: Q04DX002 (ip), vehicle: Klucel (hydroxypropylcellulose) (HPC) 97 % of control | [23] 97 % of control

COc1ccc(N2C(=O)CC(Sc3ccccc3N)C2=O)cc1 (stereo not given)
inactive: dose: 100.0 mg/kg/injection, schedule: Q01DX009 (ip), vehicle: other 102 % of control | [8] 94 % of control | dose: 200.0 mg/kg/injection, schedule: Q01DX009 (ip), vehicle: other 91 % of control | [10] 90 % of control | dose: 400.0 mg/kg/injection, schedule: Q01DX009 (ip), vehicle: other 91 % of control | [13] 90 % of control

COc1cc(C=O)ccc1OC(=O)Nc1cc([N+](=O)[O-])ccc1F
inactive: [20] 97 % of control | [21] 93 % of control | [22] 92 % of control

O=C(Nc1ccccc1C(F)(F)F)OCCOc1ccccc1Cl
inactive: [4] 92 % of control | [5] 92 % of control | [6] 92 % of control

C=CCNC(=S)Nc1ccccc1C=O
inactive: [23] 100 % of control | dose: 50.0 mg/kg/injection, schedule: Q04DX002 (ip), vehicle: Klucel (hydroxypropylcellulose) (HPC) 106 % of control | [17] 110 % of control and 90 % of control

CC(=O)OC1CCC2(C)C(CCC3C4CCC(C(C)CC(=O)O)C4CCC32)C1 (stereo not given)
inactive: dose: 100.0 mg/kg/injection, schedule: Q04DX003 (sc), vehicle: steriod suspending solution 106 % of control | dose: 200.0 mg/kg/injection, schedule: Q04DX003 (sc), vehicle: steriod suspending solution 106 % of control | dose: 400.0 mg/kg/injection, schedule: Q04DX003 (sc), vehicle: steriod suspending solution 111 % of control

O=C(O)C(C(=O)c1cccc([N+](=O)[O-])c1)C(=O)c1cccc([N+](=O)[O-])c1
inactive: [24] 100 % of control | [25] 94 % of control

Clc1nc2ccccc2s1.Clc1nc2ccccc2s1.Clc1nc2ccccc2s1.Clc1nc2ccccc2s1.[Cl][Rh][Cl]
inactive: dose: 3.13 mg/kg/injection, schedule: Q04DX003 (ip), vehicle: distilled water + Tween-80 94 % of control | dose: 6.25 mg/kg/injection, schedule: Q04DX003 (ip), vehicle: distilled water + Tween-80 96 % of control | dose: 12.5 mg/kg/injection, schedule: Q04DX003 (ip), vehicle: distilled water + Tween-80 96 % of control | dose: 25.0 mg/kg/injection, schedule: Q04DX003 (ip), vehicle: distilled water + Tween-80 102 % of control | dose: 50.0 mg/kg/injection, schedule: Q04DX003 (ip), vehicle: distilled water + Tween-80 103 % of control | dose: 100.0 mg/kg/injection, schedule: Q04DX003 (ip), vehicle: distilled water + Tween-80 102 % of control | dose: 200.0 mg/kg/injection, schedule: Q04DX003 (ip), vehicle: distilled water + Tween-80 103 % of control

COC(CO)C(O)C(O)C=O (stereo not given)
inactive: [2] 93 % of control | [3] 97 % of control | [12] 102 % of control

OCCCCN=Cc1ccccc1O.OCCCCN=Cc1ccccc1O.[Cu]
inactive: dose: 9.5 mg/kg/injection, schedule: Q01DX001 (ip), vehicle: other 102 % of control | dose: 19.0 mg/kg/injection, schedule: Q01DX001 (ip), vehicle: other 108 % of control | dose: 38.0 mg/kg/injection, schedule: Q01DX001 (ip), vehicle: other 100 % of control | dose: 75.0 mg/kg/injection, schedule: Q01DX001 (ip), vehicle: other 96 % of control

Cc1cccc(NC(=O)Nc2ccccc2F)n1
inactive: dose: 100.0 mg/kg/injection, schedule: Q01DX001 (ip), vehicle: Klucel (hydroxypropylcellulose) (HPC) 96 % of control | [20] 96 % of control | [17] 94 % of control and 87 % of control | [4] 99 % of control | dose: 200.0 mg/kg/injection, schedule: Q01DX001 (ip), vehicle: Klucel (hydroxypropylcellulose) (HPC) 91 % of control | [21] 96 % of control and 88 % of control | [18] 96 % of control and 91 % of control | [5] 111 % of control | [22] 105 % of control and 88 % of control | [19] 87 % of control and 91 % of control | [6] 97 % of control

O=C(O)C1(c2ccccc2)SCCS1
inactive: [14] 89 % of control | [15] 96 % of control | [16] 94 % of control

COC(=O)C(F)C(Br)C(=O)OC (stereo not given)
inactive: dose: 3.12 mg/kg/injection, schedule: Q01DX009 (ip), vehicle: saline with Tween-80 114 % of control | dose: 6.25 mg/kg/injection, schedule: Q01DX009 (ip), vehicle: saline with Tween-80 101 % of control | dose: 12.5 mg/kg/injection, schedule: Q01DX009 (ip), vehicle: saline with Tween-80 103 % of control | dose: 25.0 mg/kg/injection, schedule: Q01DX009 (ip), vehicle: saline with Tween-80 97 % of control | dose: 50.0 mg/kg/injection, schedule: Q01DX009 (ip), vehicle: saline with Tween-80 101 % of control

CCC[CH2][Sn]([I])([CH2]C)[CH2]C
inactive: [17] 90 % of control | [19] 101 % of control

O=C1c2ccccc2-c2cc(S)ccc21
inactive: dose: 100.0 mg/kg/injection, schedule: Q01DX001 (ip), vehicle: carboxymethylcellulose (CMC) 109 % of control | [24] 104 % of control | [25] 101 % of control

COC1OCC2OC(C)(C)OC2C1OS(=O)(=O)c1ccc(C)cc1 (stereo not given)
inactive: dose: 50.0 mg/kg/injection, schedule: Q01DX001 (ip), vehicle: saline 91 % of control | [7] 104 % of control | [9] 102 % of control | [11] 98 % of control and 96 % of control
